Assay results as given in ChEMBL document CHEMBL3817740, “Recent developments in SAR visualization” (Medchemcomm, 2016).

target: Histamine H4 receptor (Homo sapiens, UniProt Q9H3N8); experiment: Inhibition of histamine H4 receptor (unknown origin)

Ki [nM]	SMILES
3.39	CN[C@H]1CCN(c2nc(N)nc3c2oc2ccccc23)C1
158	CN[C@H]1CCN(c2nc(N)nc3c2CCC3)C1
1	CN[C@H]1CCN(c2nc(N)nc3c2oc2ccc(C(C)(F)F)cc23)C1
355	CN[C@H]1CCN(c2nc(N)nc(C)c2C)C1
